For orientation: Kd means the equilibrium constant for the complex coming apart.

Consider 2 molecules from publication PMC9503767, “Site-Differentiated Iron–Sulfur Cluster Ligation Affects Flavin-Based Electron Bifurcation Activity” (Metabolites, 2022).

The target of this experiment is T1, NfnL (large subunit of NADH-dependent reduced-ferredoxin: NADP+ oxidoreductase NfnSL) (Pyrococcus furiosus, UniProt Q8U195, E126C).
T1 construct: gene sudA; isolated NfnL subunit
Briefly: intrinsic protein fluorescence quenching titration (ex […] nm, em […] nm), quadratic tight-binding fit.

T1 sequence (Q8U195 whole entry E126C): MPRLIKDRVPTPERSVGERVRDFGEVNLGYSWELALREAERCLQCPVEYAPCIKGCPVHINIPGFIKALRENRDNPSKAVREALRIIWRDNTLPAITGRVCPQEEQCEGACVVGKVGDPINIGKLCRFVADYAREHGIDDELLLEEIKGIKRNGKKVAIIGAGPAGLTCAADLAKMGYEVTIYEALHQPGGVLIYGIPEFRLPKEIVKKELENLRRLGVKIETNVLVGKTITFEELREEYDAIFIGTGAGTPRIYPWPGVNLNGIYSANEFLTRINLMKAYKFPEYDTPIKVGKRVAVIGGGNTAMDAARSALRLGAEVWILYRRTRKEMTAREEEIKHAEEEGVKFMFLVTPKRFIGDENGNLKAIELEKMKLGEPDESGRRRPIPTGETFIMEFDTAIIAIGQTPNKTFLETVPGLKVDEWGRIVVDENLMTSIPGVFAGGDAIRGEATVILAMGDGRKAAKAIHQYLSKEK

On to `NC(=O)c1ccc[n+]([C@@H]2O[C@H](COP(=O)([O-])OP(=O)(O)OC[C@H]3O[C@@H](n4cnc5c(N)ncnc54)[C@H](OP(=O)(O)O)[C@@H]3O)[C@@H](O)[C@H]2O)c1` [NADP+], for which the Kd turned out to be 2.6 ± 0.6 µM. As for `NC(=O)C1=CN([C@@H]2O[C@H](COP(=O)(O)OP(=O)(O)OC[C@H]3O[C@@H](n4cnc5c(N)ncnc54)[C@H](OP(=O)(O)O)[C@@H]3O)[C@@H](O)[C@H]2O)C=CC1` [NADPH], the figure is 2.6 ± 0.6 µM.
